Broadly, the EC50 is the concentration giving half of the maximal effect.

The values below come from patent US8318778B2, “Urea glucokinase activators” (Novo Nordisk A/S, priority 2007, dated 2012).

The experiment has as its target T1, recombinant human glucokinase (Homo sapiens, UniProt P35557).
T1 construct: N-terminal His-tag ((His)8-VEQILA . . . Q466); made in house; host or cells: E. coli
T1 sequence (P35557 17-466 isoform P35557-2): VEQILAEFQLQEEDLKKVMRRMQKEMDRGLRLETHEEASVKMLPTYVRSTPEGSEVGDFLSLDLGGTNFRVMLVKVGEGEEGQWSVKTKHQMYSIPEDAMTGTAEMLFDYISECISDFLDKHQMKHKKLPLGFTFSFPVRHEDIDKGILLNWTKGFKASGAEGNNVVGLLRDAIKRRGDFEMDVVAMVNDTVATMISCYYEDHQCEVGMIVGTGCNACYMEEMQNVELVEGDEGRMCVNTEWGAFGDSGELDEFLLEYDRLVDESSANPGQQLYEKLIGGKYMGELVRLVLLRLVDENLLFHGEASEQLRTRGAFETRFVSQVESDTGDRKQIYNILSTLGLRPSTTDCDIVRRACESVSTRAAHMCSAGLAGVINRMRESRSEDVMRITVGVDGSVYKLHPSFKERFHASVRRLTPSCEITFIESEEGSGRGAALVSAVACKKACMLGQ
The experiment is described as follows: Glucokinase Activity Assay (I): spectrometric assay coupled to glucose 6-phosphate dehydrogenase. It counts as biochemical. The settings on record: 15 mM glucose. As to the method:
Glucokinase activity is assayed spectrometrically coupled to glucose 6-phosphate dehydrogenase to determine compound activation of glucokinase. The final assay contains 50 mM Hepes, pH 7.1, 50 mM KCl, 5 mM MgCl2, 2 mM dithiothreitol, 0.6 mM NADP, 1 mM ATP, 0.195 μM G-6-P dehydrogenase (from Roche, 127 671), 15 nM recombinant human glucokinase.
The purification of His-tagged human glucokinase (hGK) was performed as follows: The cell pellet from 50 ml E. coli culture was resuspended in 5 ml extraction buffer A (25 mM HEPES, pH 8.0, 1 mM MgCl2, 150 mM NaCl, 2 mM mercaptoethanol) with addition of 0.25 mg/ml lysozyme and 50 μg/ml sodium azide. […]
The compound to be tested is added into the well in final 2.5% DMSO concentration in an amount sufficient to give a desired concentration of compound, for instance 1, 5, 10, 25 or 50 μM. […] The plate is incubated at 25° C. for 5 min and kinetics is measured at 340 nm in SpectraMax every 30 seconds for 5 minutes. Results for each compound are expressed as the fold activation of the glucokinase activity compared to the activation of the glucokinase enzyme in an assay without compound after having been subtracted from a “blank”, which is without glucokinase enzyme and without compound. […]
The glucose sensitivity of the compounds are measured at a compound concentration of 10 μM and at glucose concentrations of 5 and 15 mM.

Each structure is given as a SMILES string.

For the compound `C[C@H]1CC[C@H](N(CC(F)(F)c2ccccc2)C(=O)Nc2ncc(SCC(=O)O)s2)CC1` [Example 83, {2-[3-(2,2-Difluoro-2-phenyl-ethyl)-3-(trans-4-methyl-cyclohexyl)-ureido]-thiazol-5-ylsulfanyl}-acetic acid], the EC50 amounted to 289 nM. The “FA (15 mM)” value (fold activation of glucokinase activity vs assay without compound) turned out to be 2.1.
